Measured values taken from patent US20260125346A1, “Isoquinolinone Derivatives and 4H-Quinolizinone Derivatives and Pharmaceutical Compositions Thereof for the Treatment of Disease” (BeOne Medicines I GmbH, priority 2023, published 2026).
pIC50: −log10 of the molar value.

What was measured:
[1] = target: PI3Kα (p110/p85) kinase (wild type, "WT") (Homo sapiens, UniProt P42336); experiment: PI3Kα (p110/p85) kinase ADP-Glo Assay; type: biochemical; conditions: 25 uM ATP
Outline: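 IC50 values come from a four-parameter logistic fit of ADP-Glo chemiluminescence, reflecting ADP formed. Enzyme, lipid substrate and […] compound were preincubated 30 min at room temperature, then 25 µM ATP was added for a 120 min reaction in 50 mM HEPES pH7.5, 3 mM MgCl2.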

[2] = tested on: PI3Kα H1047R mutated cell line T-47D; experiment: Phospho-AKT (Ser473) Inhibition Assay (HTRF), T-47D; type: cell-based; conditions: for pIC50: Homo sapiens, T47D, T-47D, 1 hour treatment, read-out: p-AKT Inhibition assay (S473) IC50 T-47D; for Selectivity: SK-BR-3/T-47D (p-AKT): p-AKT (S473) IC50 ratio
Outline: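 Cells seeded overnight in insulin-supplemented MEM, then treated 1 h with 11-point 1:3 compound dilutions (10 μM to 0.1 nM final, 0.1% DMSO). Lysates assayed for phospho-AKT Ser473 by HTRF; IC50 from 4-parameter logistic fit, normalised to DMSO (max) and 10 μM GDC0077 (min).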

WT cell line SK-BR-3 [3] = experiment: Phospho-AKT (Ser473) Inhibition Assay (HTRF), SK-BR-3; type: cell-based; conditions: Homo sapiens; SK-BR-3, 1 hour treatment; read-out: p-AKT Inhibition assay (S473) IC50 SK-BR-3
Outline: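 SK-BR-3 (PI3Kα WT) cells seeded overnight in MEM with insulin, then treated 1 h with 11-point 1:3 dilutions (10 μM to 0.1 nM, 0.1% DMSO). Lysates read for phospho-AKT Ser473 by HTRF after 4 h antibody incubation at room temperature. IC50 from 4-parameter fit, % inhibition normalized to DMSO (max) and 10 μM GDC0077 (min).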

WT cell line SK-BR-3 [4] = experiment: Cell Proliferation Assay (CellTiter-Glo), SK-BR-3; type: cell-based; conditions: Homo sapiens, 72 h; SK-BR-3, 3 days treatment
Outline: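 SK-BR-3 cells treated for 3 days with compound in a 9-point series, final concentrations 10 M to 1 nM in 0.1% DMSO. Viability read by CellTiter-Glo luminescence. Relative IC50 from percent inhibition versus medium-only and DMSO controls, four-parameter logistic fit.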

PI3Kα (p110/p85) kinase (wild type, "WT"), sequence (P42336 whole entry): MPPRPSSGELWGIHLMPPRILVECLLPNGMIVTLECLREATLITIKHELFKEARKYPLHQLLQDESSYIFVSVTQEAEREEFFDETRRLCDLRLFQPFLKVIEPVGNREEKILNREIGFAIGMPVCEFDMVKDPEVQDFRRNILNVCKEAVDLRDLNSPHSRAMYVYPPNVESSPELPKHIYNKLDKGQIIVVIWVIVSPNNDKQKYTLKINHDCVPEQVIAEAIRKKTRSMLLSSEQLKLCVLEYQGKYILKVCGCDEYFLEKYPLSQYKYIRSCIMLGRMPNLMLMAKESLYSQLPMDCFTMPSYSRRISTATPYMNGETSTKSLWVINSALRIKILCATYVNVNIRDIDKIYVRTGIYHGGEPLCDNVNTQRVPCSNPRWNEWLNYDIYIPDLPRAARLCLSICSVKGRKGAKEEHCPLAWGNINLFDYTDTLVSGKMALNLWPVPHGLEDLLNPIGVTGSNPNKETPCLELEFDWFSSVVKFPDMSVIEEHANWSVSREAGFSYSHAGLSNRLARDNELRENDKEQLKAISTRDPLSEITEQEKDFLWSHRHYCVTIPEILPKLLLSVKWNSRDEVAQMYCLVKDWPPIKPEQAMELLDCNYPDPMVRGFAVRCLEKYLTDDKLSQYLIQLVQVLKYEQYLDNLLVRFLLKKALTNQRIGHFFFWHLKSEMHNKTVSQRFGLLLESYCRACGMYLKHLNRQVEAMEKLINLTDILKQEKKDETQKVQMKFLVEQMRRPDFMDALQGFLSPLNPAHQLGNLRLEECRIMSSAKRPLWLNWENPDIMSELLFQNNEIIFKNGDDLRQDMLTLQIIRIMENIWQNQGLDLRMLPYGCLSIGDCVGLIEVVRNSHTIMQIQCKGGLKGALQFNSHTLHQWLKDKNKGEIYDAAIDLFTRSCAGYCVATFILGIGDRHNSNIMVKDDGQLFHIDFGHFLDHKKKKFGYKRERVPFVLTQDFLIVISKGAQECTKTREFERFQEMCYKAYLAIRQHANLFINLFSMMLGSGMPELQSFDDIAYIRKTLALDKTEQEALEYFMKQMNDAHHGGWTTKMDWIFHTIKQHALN
PI3Kα (p110/p85) kinase (wild type, "WT"), sequence (P27986 whole entry partner): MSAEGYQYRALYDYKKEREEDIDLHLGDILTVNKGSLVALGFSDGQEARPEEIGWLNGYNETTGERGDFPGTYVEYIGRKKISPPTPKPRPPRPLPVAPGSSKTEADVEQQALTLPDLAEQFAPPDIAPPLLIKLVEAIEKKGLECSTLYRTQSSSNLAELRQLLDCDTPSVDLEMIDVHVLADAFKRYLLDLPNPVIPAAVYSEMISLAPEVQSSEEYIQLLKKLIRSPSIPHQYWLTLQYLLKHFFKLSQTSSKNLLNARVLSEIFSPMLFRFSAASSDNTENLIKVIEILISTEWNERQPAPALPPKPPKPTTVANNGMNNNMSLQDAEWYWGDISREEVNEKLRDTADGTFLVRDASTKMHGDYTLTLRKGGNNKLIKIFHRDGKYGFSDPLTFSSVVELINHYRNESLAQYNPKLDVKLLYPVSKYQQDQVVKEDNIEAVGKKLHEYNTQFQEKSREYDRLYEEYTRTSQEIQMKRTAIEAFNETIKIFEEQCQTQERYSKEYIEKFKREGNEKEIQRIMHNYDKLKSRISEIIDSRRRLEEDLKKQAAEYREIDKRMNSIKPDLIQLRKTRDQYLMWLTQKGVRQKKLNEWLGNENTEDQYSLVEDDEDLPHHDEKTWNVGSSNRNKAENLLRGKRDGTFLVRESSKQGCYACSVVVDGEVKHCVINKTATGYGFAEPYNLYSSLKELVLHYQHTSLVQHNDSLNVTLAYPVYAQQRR

Compound	pIC50 [1]	pIC50 [2]	pIC50 (WT cell line SK-BR-3 [3])	pIC50 (WT cell line SK-BR-3 [4])	Selectivity: SK-BR-3/T-47D (p-AKT) [2]
Cc1cc(C(C)Nc2ccccc2C(=O)O)c2cc(C#Cc3cnn(C)c3)n(C)c(=O)c2c1 (stereo not drawn) [Example 80, 2-((1-(2,7-dimethyl-3-((1-methyl-1H-pyrazol-4-yl)ethynyl)-1-oxo-1,2-dihydroisoquinolin-5-yl)ethyl)amino)benzoic acid]	5.48	7.16	5.51	< 5.00	44.1
Cc1cc(C(C)Nc2ccccc2S(C)(=O)=O)c2cc(-c3ccccc3)n(C)c(=O)c2c1 (stereo not drawn) [Example 82, 2,7-dimethyl-5-(1-((2-(methylsulfonyl)phenyl)amino)ethyl)-3-phenylisoquinolin-1(2H)-one]	5.48	6.81	5.69	< 5.00	13.0
Cc1cc(C(C)Nc2ccccc2C(=O)O)c2cc(-c3ccc(N4CCCC4)cc3)n(C)c(=O)c2c1 (stereo not drawn) [Example 84, 2-((1-(2,7-dimethyl-1-oxo-3-(4-(pyrrolidin-1-yl)phenyl)-1,2-dihydroisoquinolin-5-yl)ethyl)amino)benzoic acid]	4.83	7.22	5.51	< 5.00	52.0
Cc1cc(C(C)Nc2ccccc2C(=O)O)c2cc(-c3ccc(C(F)(F)F)nc3)n(C)c(=O)c2c1 (stereo not drawn) [Example 86, 2-((1-(2,7-dimethyl-1-oxo-3-(6-(trifluoromethyl)pyridin-3-yl)-1,2-dihydroisoquinolin-5-yl)ethyl)amino)benzoic acid]	4.82	6.43	< 5.00	< 5.00	>27
Cc1cc(C(C)Nc2ccccc2C(=O)O)c2cc(-c3cnn(CC45CC6C[C@H](C4)C[C@H](C6)C5)c3C)n(C)c(=O)c2c1 (stereo partly drawn) [Example 87, 2-((1-(3-(1-(((3S,5S)-adamantan-1-yl)methyl)-5-methyl-1H-pyrazol-4-yl)-2,7-dimethyl-1-oxo-1,2-dihydroisoquinolin-5-yl)ethyl)amino)benzoic acid]	4.45	6.36	5.55	< 5.00	6.6
Cc1cc(C(C)Nc2ccccc2C(=O)O)c2cc(C#Cc3ccn(C)n3)n(C)c(=O)c2c1 (stereo not drawn) [Example 88, 2-((1-(2,7-dimethyl-3-((1-methyl-1H-pyrazol-3-yl)ethynyl)-1-oxo-1,2-dihydroisoquinolin-5-yl)ethyl)amino)benzoic acid]	5.76	7.16	5.71	< 5.00	28.3
Cc1cc(C(C)Nc2ccccc2C(=O)O)c2cc(-c3ccc(F)cc3)n(C3CCOCC3)c(=O)c2c1 (stereo not drawn) [Example 96, 2-((1-(3-(4-fluorophenyl)-7-methyl-1-oxo-2-(tetrahydro-2H-pyran-4-yl)-1,2-dihydroisoquinolin-5-yl)ethyl)amino)benzoic acid]	4.14	6.48	5.02	< 5.00	28.8
Cc1cc(C(C)Nc2ccncc2C(=O)O)c2cc(-c3ccc(F)cc3)n(C)c(=O)c2c1 (stereo not drawn) [Example 97, 4-((1-(3-(4-fluorophenyl)-2,7-dimethyl-1-oxo-1,2-dihydroisoquinolin-5-yl)ethyl)amino)nicotinic acid]	< 4.00	< 5.00	< 5.00	< 5.00	

Further lines, with some results ahead:

pIC50 [1]	pIC50 [2]	pIC50 (WT cell line SK-BR-3 [3])	pIC50 (WT cell line SK-BR-3 [4])	Compound	Selectivity: SK-BR-3/T-47D (p-AKT) [2]
4.23	< 5.00	< 5.00	< 5.00	Cc1cc(C(C)Nc2ccccc2C(=O)O)c2cc(-c3ccc(P(C)(C)=O)cc3)n(C)c(=O)c2c1 (stereo not drawn) [Example 79, 2-((1-(3-(4-(dimethylphosphoryl)phenyl)-2,7-dimethyl-1-oxo-1,2-dihydroisoquinolin-5-yl)ethyl)amino)benzoic acid]	
5.42	7.39	5.73	< 5.00	CCn1c(-c2ccc(F)cc2)cc2c(C(C)Nc3ccc(Cl)nc3C(=O)O)cc(C)cc2c1=O (stereo not drawn) [Example 81, 6-chloro-3-((1-(2-ethyl-3-(4-fluorophenyl)-7-methyl-1-oxo-1,2-dihydroisoquinolin-5-yl)ethyl)amino)picolinic acid]	45.6
5.16	6.74	5.17	< 5.00	Cc1cc(C(C)Nc2ccccc2C(=O)O)c2cc(C#CC3(O)CCCC3)n(C)c(=O)c2c1 (stereo not drawn) [Example 89, 2-((1-(3-((1-hydroxycyclopentyl)ethynyl)-2,7-dimethyl-1-oxo-1,2-dihydroisoquinolin-5-yl)ethyl)amino)benzoic acid]	37.2
< 4.00	5.48	< 5.00	< 5.00	Cc1cc(C(C)Nc2ccccc2C(=O)O)c2cc(C#Cc3cnn(-c4ccccc4)c3)n(C)c(=O)c2c1 (stereo not drawn) [Example 94, 2-((1-(2,7-dimethyl-1-oxo-3-((1-phenyl-1H-pyrazol-4-yl)ethynyl)-1,2-dihydroisoquinolin-5-yl)ethyl)amino)benzoic acid]	>3.05
5.36	7.59	5.87	< 5.00	Cc1cc(C(C)Nc2ccccc2C(=O)O)c2cc(-c3ccc(F)cc3)n(C3COC3)c(=O)c2c1 (stereo not drawn) [Example 95, 2-((1-(3-(4-fluorophenyl)-7-methyl-2-(oxetan-3-yl)-1-oxo-1,2-dihydroisoquinolin-5-yl)ethyl)amino)benzoic acid]	52.9
